Assay results published in US20230390282A1, “TREATMENT OF EYE CONDITIONS” (The University of Birmingham, priority 2020, published 2023).
“Also recorded” adds a separate entry of the source.

Tests used:
[1] = tested on: RGC; test: Glaucoma model (intracameral TGFβ): RGC survival; assay type: in vivo, rat; conditions: 30 days after the induction of glaucoma
Method: Induction of glaucoma. […] Intraocular pressure was measured using an iCare
Tonolab rebound tonometer (Icare, Helsinki, Finland).

[2] = tested on: RGC; conditions: 24 days after ONC
[3] = tested on: dorsal root ganglion neuron (DRGN) cultures; test: Primary adult rat DRGN cultures: survival and neurite outgrowth; assay type: cell-based
Method: (§1) Rat DRGN and retinal cultures. […] Cells were cultured for 4 days in a humidified chamber at 37° C. and 5% CO2 before being subjected to quantitative RT-PCR or immunocytochemistry, as described below.

[4] = tested on: dorsal column (DC) axons; test: T8 dorsal column (DC) crush model of spinal cord injury: axon regeneration, electrophysiology, sensory and locomotor tests; assay type: in vivo, rat; conditions: for DC axon regeneration: GAP43+ axons rostral to/beyond the lesion site
Method: DC crush injury model. Rats were injected subcutaneously with 0.05 ml Buprenorphine to provide analgesia prior to surgery and anaesthetised using 5% of Isoflurane in 1.8 ml/l of O2 with body temperature and heart rate monitored throughout surgery.
Chk2 inhibition studies in the DC crush injury model. […] Chk1i (LY2603618) was used at equimolar concentrations for each experiment. Rats were killed in a rising concentration of CO2 at either 28 d for immunohistochemistry and western blot analyses or 6 weeks for electrophysiology and functional tests.
Sham treated animals (partial laminectomy but no DC injury) were also included as additional controls. At 4 weeks after DC injury and treatment, ipsilateral L4/L5 DRG pairs were harvested, total RNA extracted using Trizol reagent as described above and knock down of Chk1 and Chk2 mRNA knockdown using quantitative qRT-PCR, as described above. Contralateral L4/L5 DRG pairs were treated the same as above and used as controls. […] This included western blot to determine pChk1 and pChk2 levels after shChk2 treatment. For these experiments, animals were randomly assigned to DC+shNull and DC+shChk2 groups each comprising n=6 rats and repeated on 3 independent occasions (total n=18 rats/group). […] Animals were allowed to survive for 6 weeks with functional testing (tape sensing+removal and ladder crossing tests) performed pre- and post-DC injury as described below. Electrophysiology was performed on the same set of animals at 6 weeks after DC injury and treatment as described below.
Quantification of DC axon regeneration. […] Briefly, the number of intersections of GAP43^+ fibers were counted through a dorsoventral orientated line in reconstructed serial parasagittal sections of the cord (serial 50μm-thick sections ˜70-80 sections/animal; n=10 rats/treatment)). Axon number was then represented as % of fibers counted at 4 mm above the lesion, where the DC was intact.
Electrophysiology. […] Briefly, with the experimenter masked to the treatment conditions, silver wire electrodes applied single-current pulses (0.05 ms) through a stimulus isolation unit in increments (0.2, 0.3, 0.6, 0.8, and 1.2 mA) at L1-L2 and compound action potentials (CAP) were recorded at C4-C5 along the surface of the midline spinal cord. Spike 2 software was then used to calculate CAP amplitudes between the negative deflection after the stimulus artifact and the next peak of the wave. CAP area was calculated by rectifying the negative CAP component (full-wave rectification) and measuring its area. At the different stimulation intensities. […] Representative CAP traces are processed output data from Spike 2 software.
Functional tests. […] Briefly, animals (n=6 rats/group, 3 independent repeats; total n=18/group) received training to master traversing the horizontal ladder for 1w before functional testing. Baseline parameters for all functional tests were established 2-3 d before injury. Animals were then tested 2 d after DC lesion+treatment and then weekly for 6 weeks. Experiments were performed by 2 observers (treatment conditions were masked) in the same order, the same time of day and each test performed for 3 individual trials. Horizontal ladder test: This tests the animals locomotor function and is performed on a 0.9-meter-long horizontal ladder with a diameter of 15.5 cm and randomly adjusted rungs with variable gaps of 3.5-5.0 cm. The total number of steps taken to cross the ladder and the left and right rear paw slips being were recorded and the mean error rate was then calculated by dividing the number of slips by the total number of steps taken.

[5] = tested on: RGC; test: Rat retinal cultures: RGC survival and neurite outgrowth; assay type: cell-based; conditions: 1-50 μM
Method: as §1

[6] = tested on: RGC; test: Optic neuritis model: RGC survival and RNFL thickness; assay type: in vivo, mice
Method: Induction of optic neuritis. […] Animals were intraperitoneally injected with 150 ng Bordetella pertussis toxin on day 0 and 2. Animals were monitored daily and assessed for the development of EAE. At the end of the experiment, animals were then killed by CO2 overdose.
Measurement of RNFL thinning using optical coherence tomography (OCT). A Spectralis HRA+OCT machine was used to capture OCT images. Examinations were recorded in both right (oculus dextrus, OD) and left eyes (oculus sinister, OS) of each animal at day 0 and day 21 after immunisation. […] A RNFL single exam using the automatic real time (ART) mode (allows averaging of 100 recordings) was produced for each mouse eye, which automatically measured RNFL thickness (μm) in a 30° circle surrounding the optic nerve head.

[7] = Chk2i: 3 weeks after injury, others over the whole 6 weeks

| Molecule | protection of RGC from death [1] | effect on ERG traces [2] | effect on DRGN survival ([3]; 1-50 μM) | neurite outgrowth in DRGN ([3]; 4 days in culture) | DRGN survival ([3]; 4 days in culture, NBA-treated controls 40%) | mean CAP area at different stimulation intensities ([4]; 6 weeks after DC injury) | negative CAP amplitudes ([4]; 6 weeks after DC injury, all stimulation intensities) | ladder crossing test (locomotor function) outcome [4, 7] | tape sensing/removal test (sensory function) outcome [4, 7] | DC axon regeneration [4] | effect on RGC survival [5] | protection of RGC from death ([6]; 21 days after induction) | protection against retinal nerve fibre layer thinning ([6]; OCT at day 21) | % DRGN with neurites ([3]; 4 days in culture) | mean neurite length ([3]; 4 days in culture, controls 12 μm) | improvement in RGC function measured by flash electroretinography (ERG) amplitude [2] |
| --- | --- | --- | --- | --- | --- | --- | --- | --- | --- | --- | --- | --- | --- | --- | --- | --- |
| Cc1cnc(NC(=O)Nc2cc(Br)c(C)cc2OC[C@@H]2CNCCO2)cn1 [Chk1i] | no effect | no effect | no effect | no effect | no effect | significantly attenuated | significantly attenuated | significant deficit remains; also recorded: deficit remaining | significant deficit remained | no axon regeneration beyond the lesion site | no effect | no effect | no effect |  |  |  |
| FGF2: positive control for DRGN cultures, pre-optimised 10 ng/ml |  |  |  |  |  |  |  |  |  |  |  |  |  | 42% | 180 μm |  |
| COc1cc2nc(-c3cc(F)ccc3O)nc(N[C@@H]3CNC[C@H]3C(C)(C)O)c2cc1OC [Chk2i] |  |  |  |  |  |  |  |  |  | significant DC axon regeneration |  |  |  |  |  | > 83% |
